{"source": "paper PMC11117541", "about": "“The Truncated Peptide AtPEP1^(9–23) Has the Same Function as AtPEP1^(1–23) in Inhibiting Primary Root Growth and Triggering of ROS Burst” (Antioxidants, 2024)", "key": {"[1]": {"tested_on": "shoot (rosette) of Arabidopsis seedlings", "test": "Shoot growth, diameter of rosettes (Figure S1)", "type": "in vivo, Arabidopsis thaliana", "settings": "for Mean diff, A2 - B2, diameter of rosettes: two-way ANOVA output, by table order A = mock, B = peptide, row 2 = Day 4"}, "[2]": {"tested_on": "ROS burst in Arabidopsis leaves (Col-0)", "test": "ROS burst, luminol dependent assay in Col-0 leaves", "type": "cell-based, Arabidopsis thaliana", "settings": "for concentration at which ROS burst is triggered: Col-0 leaf pieces, luminol L-012/HRP, luminescence recorded 30 min", "method": "The measurement of ROS burst was carried out using a luminol dependent assay. Briefly, leaf samples were cut into small pieces and placed in a 96-well plate containing 0.1 mL reaction solution (2 µg/mL horseradish peroxidase, 200 µM luminol L-012). Luminescence signal was immediately measured upon the addition elicitor peptides and recorded for a period of 30 min. The total relative light units (RLUs) measured within a 15 min time was plotted."}, "[3]": {"tested_on": "root tip cells of Arabidopsis seedlings", "test": "Root tip morphology, generation of root hairs", "type": "in vivo, Arabidopsis thaliana", "settings": "peptide for 4 days, up to 500 nM, n = 20", "method": "(§1) Five-day-old seedlings were transferred from 1/2 MS medium to 1/2 MS medium supplemented with or without elicitor for four days. The transferred seedlings were photographed every day for a total of four days. The primary root length was measured using ImageJ software (V 1.8.0). After four days of elicitor treatment, the root tips of seedlings were observed by microscope and the fluorescence from root tip cells of GFP tag seedlings were excited with a 488 nm laser. Emission was detected between 495 and 550 nm. The images were acquired with an OLYMPUS FV10-MCPUS confocal laser scanning microscope. Images were processed using LSM image examiner software (FV10-ASW3.1) and Adobe Photoshop CS4 version 11.0.2 (Adobe Systems, San Jose, CA, USA)."}, "[4]": {"tested_on": "primary root growth of Arabidopsis thaliana Col-0 seedlings", "type": "in vivo", "settings": "n = 20; for inhibitory effect on primary root growth (in words): different concentrations up to 500 nM, 4 days; for concentration at which primary root growth is inhibited: five-day-old Col-0 seedlings transferred to 1/2 MS with peptide, up to 4 days", "method": "For sterile seedlings, the seeds were first surface-sterilized with 75% ethanol twice. Then, after cold treatment at 4 °C for 2 days, the seeds were germinated on 1/2 Murashige-Skoog (MS) medium supplemented with 0.8% agar and 1% sucrose. For four-week-old plants, the seeds after cold treatment at 4 °C for 2 days were grown in a 1:1 mixture of sand: humus. Both growth environments were carried out in a growth cabinet with 12 h of light, a temperature of 22 °C, and 60% humidity.\nas §1"}, "[5]": {"tested_on": "DR5::GFP (auxin maxima in root tips)", "test": "DR5::GFP reporter for auxin maxima in root tips", "type": "in vivo, Arabidopsis thaliana", "settings": "500 nM peptide, four days, confocal microscopy, n = 20, one-way ANOVA", "text": "(§2) All plants used in this study are of the Arabidopsis thaliana accession Columbia-0 (Col-0) background, including the wild-type, mutant line pepr1-2pepr2-2 (pepr1/2, AT1G73080 and AT1G17750) and transgenic lines expressing WOX5::GFP (AT3G11260) and DR5::GFP [35]. DR5 was created by petforming site-directed mutations in a natural composite auxin response element (AuxRE) found in the soybean GH3 promoter. DR5 consisted of tandem direct repeats of 11 bp (CCTTTTGTCTC)\nas §1"}, "[6]": {"tested_on": "WOX5::GFP (quiescent center)", "test": "WOX5::GFP reporter in quiescent centre of root tips", "type": "in vivo, Arabidopsis thaliana", "settings": "500 nM peptide, four days, confocal microscopy, n = 20", "text": "as §2, §1"}}, "note": "Where a SMILES comes first, the peptide text is derived from it.", "data": [{"compound": "AtPEP1^(13–23): truncating 12 amino acids from the N-terminus of AtPEP1(1–23) (KVSSGRPGQHN; Elicitor peptide 1; UniProt Q9LV87 82-92, looked up, fragment)", "values": [{"measurement": "inhibitory effect on the shoot (in words)", "setting": "[1]; Figure S1, Table S7", "result": "does not inhibit"}, {"measurement": "Mean diff, A2 - B2, diameter of rosettes", "setting": "[1]", "result": 0.03538}, {"measurement": "concentration at which ROS burst is triggered", "setting": "[2]; n = 4", "result": 10, "unit": "nM"}, {"measurement": "generation of root hairs / maturation of root tip cells (in words)", "setting": "[3]", "result": "did not promote the generation of root hairs"}, {"measurement": "inhibitory effect on primary root growth (in words)", "setting": "[4]", "result": "did not show an obvious inhibitory effect"}, {"measurement": "maximum levels of auxin in root tips (DR5::GFP fluorescence) compared with control", "setting": "[5]", "result": "did not show significant changes"}]}, {"compound": "AtPEP1^(9–23): truncating eight amino acids from the N-terminus of AtPEP1(1–23) (RGKEKVSSGRPGQHN; Elicitor peptide 1; UniProt Q9LV87 78-92, looked up, fragment)", "values": [{"measurement": "WOX5 expression (WOX5::GFP signaling width) compared with control", "setting": "[6]", "result": "increase in WOX5 expression"}, {"measurement": "Mean diff, A2 - B2, diameter of rosettes", "setting": "[1]", "result": 0.1045}, {"measurement": "concentration at which ROS burst is triggered", "setting": "[2]; n = 4", "result": 10, "unit": "nM"}, {"measurement": "generation of root hairs / maturation of root tip cells (in words)", "setting": "[3]", "result": "more efficient than AtPEP1^(1–23)"}, {"measurement": "maximum levels of auxin in root tips (DR5::GFP fluorescence) compared with control", "setting": "[5]", "result": "significantly reduced"}]}, {"compound": "AtPEP1^(5–23): truncated peptide of AtPEP1(1–23), residues 5–23 (KAKQRGKEKVSSGRPGQHN; Elicitor peptide 1; UniProt Q9LV87 74-92, looked up, fragment)", "values": [{"measurement": "WOX5 expression (WOX5::GFP signaling width) compared with control", "setting": "[6]", "result": "increase in WOX5 expression"}, {"measurement": "Mean diff, A2 - B2, diameter of rosettes", "setting": "[1]", "result": 0.1141}, {"measurement": "concentration at which ROS burst is triggered", "setting": "[2]; n = 4", "result": 10, "unit": "nM"}, {"measurement": "generation of root hairs / maturation of root tip cells (in words)", "setting": "[3]", "result": "more efficient than AtPEP1^(1–23)"}, {"measurement": "maximum levels of auxin in root tips (DR5::GFP fluorescence) compared with control", "setting": "[5]", "result": "significantly reduced"}]}, {"compound": "AtPEP1^(11–23): truncated peptide of AtPEP1(1–23), residues 11–23 (KEKVSSGRPGQHN; Elicitor peptide 1; UniProt Q9LV87 80-92, looked up, fragment)", "values": [{"measurement": "WOX5 expression (WOX5::GFP signaling width) compared with control", "setting": "[6]", "result": "increase in WOX5 expression"}, {"measurement": "Mean diff, A2 - B2, diameter of rosettes", "setting": "[1]", "result": 0.1293}, {"measurement": "concentration at which ROS burst is triggered", "setting": "[2]; n = 4", "result": 10, "unit": "nM"}, {"measurement": "generation of root hairs / maturation of root tip cells (in words)", "setting": "[3]", "result": "did not promote the generation of root hairs"}, {"measurement": "inhibitory effect on primary root growth (in words)", "setting": "[4]", "result": "lower than that of AtPEP1^(1–23)"}, {"measurement": "concentration at which primary root growth is inhibited", "setting": "[4]", "result": 5, "unit": "nM"}, {"measurement": "maximum levels of auxin in root tips (DR5::GFP fluorescence) compared with control", "setting": "[5]", "result": "significantly reduced"}]}, {"compound": "CC(C)[C@H](NC(=O)[C@H](CCCCN)NC(=O)[C@H](CCC(=O)O)NC(=O)[C@H](CCCCN)NC(=O)CNC(=O)[C@H](CCCNC(=N)N)NC(=O)[C@H](CCC(N)=O)NC(=O)[C@@H](N)CCCCN)C(=O)N[C@@H](CO)C(=O)N[C@@H](CO)C(=O)NCC(=O)N[C@@H](CCCNC(=N)N)C(=O)N1CCC[C@H]1C(=O)NCC(=O)N[C@@H](CCC(N)=O)C(=O)N[C@@H](Cc1c[nH]cn1)C(=O)N[C@@H](CC(N)=O)C(=O)O", "note": "[AtPEP1^(7–23)] (H-KQRGKEKVSSGRPGQHN-OH; N-terminus and C-terminus assumed)", "values": [{"measurement": "WOX5 expression (WOX5::GFP signaling width) compared with control", "setting": "[6]", "result": "increase in WOX5 expression"}, {"measurement": "Mean diff, A2 - B2, diameter of rosettes", "setting": "[1]", "result": 0.1995}, {"measurement": "concentration at which ROS burst is triggered", "setting": "[2]; n = 4", "result": 10, "unit": "nM"}, {"measurement": "generation of root hairs / maturation of root tip cells (in words)", "setting": "[3]", "result": "more efficient than AtPEP1^(1–23)"}, {"measurement": "maximum levels of auxin in root tips (DR5::GFP fluorescence) compared with control", "setting": "[5]", "result": "significantly reduced"}]}, {"compound": "AtPEP1^(1–23): plant elicitor peptide 1 (PEP1) from Arabidopsis thaliana, composed of 23 amino acids, immune elicitor (ATKVKAKQRGKEKVSSGRPGQHN; Elicitor peptide 1; UniProt Q9LV87 70-92, looked up) [reference compound]", "values": [{"measurement": "WOX5 expression (WOX5::GFP signaling width) compared with control", "setting": "[6]", "result": "increase in WOX5 expression"}, {"measurement": "Mean diff, A2 - B2, diameter of rosettes", "setting": "[1]", "result": 0.05081}, {"measurement": "total ROS within 15 min compared to the control group", "setting": "[2]; 10 nM peptide", "result": "no significant difference"}, {"measurement": "concentration at which ROS burst is triggered", "setting": "[2]; n = 4", "result": 10, "unit": "nM"}, {"measurement": "concentration at which total ROS within 15 min was significantly higher than the control", "setting": "[2]; total RLU within 15 min, one-way ANOVA, n = 4", "result": "greater than or equal to 100 nM"}, {"measurement": "generation of root hairs / maturation of root tip cells (in words)", "setting": "[3]", "result": "promoted the generation of root hairs"}, {"measurement": "concentration at which primary root growth is inhibited", "setting": "[4]", "result": 50, "unit": "nM"}, {"measurement": "concentration that completely inhibited the primary root growth", "setting": "[4]; five-day-old Col-0 seedlings, 4 days on peptide medium", "result": 500, "unit": "nM"}, {"measurement": "maximum levels of auxin in root tips (DR5::GFP fluorescence) compared with control", "setting": "[5]", "result": "significantly reduced"}]}, {"compound": "AtPEP1^(9–22): C-terminal truncated peptide created from AtPEP1(9–23) (RGKEKVSSGRPGQH; Elicitor peptide 1; UniProt Q9LV87 78-91, looked up, fragment)", "values": [{"measurement": "Mean diff, A2 - B2, diameter of rosettes", "setting": "[1]", "result": -0.02327}, {"measurement": "concentration at which ROS burst is triggered", "setting": "[2]; n = 4", "result": 100, "unit": "nM"}, {"measurement": "generation of root hairs / maturation of root tip cells (in words)", "setting": "[3]", "result": "did not promote the generation of root hairs"}, {"measurement": "maximum levels of auxin in root tips (DR5::GFP fluorescence) compared with control", "setting": "[5]", "result": "did not show significant changes"}]}]}
